Assay results as given in PubChem BioAssay AID330 (DTP/NCI, 2004).
Where “and” joins values, the source holds several entries; their conditions need not be identical. Equal values may be shown once. Inconclusive results and toxic doses are left out. Rule for the calls: active = survival T/C of 150% or more; inactive = T/C below 125% in these data.

System: P388 leukemia ip, CD2F1 mice, survival T/C
Test: NCI In Vivo Anticancer Drug Screen. Data for tumor model P388 Leukemia (intraperitoneal) in CD2F1 (CDF1) mice
Conditions: endpoint: median survival time, higher = longer survival
Summary of the method: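 Mice carrying the transplanted tumor received test compound or vehicle. Survival was recorded in each group, and the value is the treated-group measurement divided by that of the vehicle-treated control group.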

[1] = dose: 50.0 mg/kg/injection, schedule: Q01DX005 (ip), vehicle: saline
[2] = dose: 100.0 mg/kg/injection, schedule: Q01DX005 (ip), vehicle: saline
[3] = dose: 50.0 mg/kg/injection, schedule: Q01DX005 (ip), vehicle: saline with Tween-80
[4] = dose: 100.0 mg/kg/injection, schedule: Q01DX005 (ip), vehicle: saline with Tween-80
[5] = dose: 50.0 mg/kg/injection, schedule: Q01DX005 (ip), vehicle: Klucel (hydroxypropylcellulose) (HPC)
[6] = dose: 100.0 mg/kg/injection, schedule: Q01DX005 (ip), vehicle: Klucel (hydroxypropylcellulose) (HPC)
[7] = dose: 100.0 mg/kg/injection, schedule: Q04DX003 (ip), vehicle: saline
[8] = dose: 200.0 mg/kg/injection, schedule: Q04DX003 (ip), vehicle: saline
[9] = dose: 50.0 mg/kg/injection, schedule: Q01DX009 (ip), vehicle: Klucel (hydroxypropylcellulose) (HPC)
[10] = dose: 100.0 mg/kg/injection, schedule: Q01DX009 (ip), vehicle: Klucel (hydroxypropylcellulose) (HPC)
[11] = dose: 200.0 mg/kg/injection, schedule: Q01DX009 (ip), vehicle: Klucel (hydroxypropylcellulose) (HPC)
[12] = dose: 25.0 mg/kg/injection, schedule: Q01DX009 (ip), vehicle: saline with Tween-80
[13] = dose: 50.0 mg/kg/injection, schedule: Q01DX009 (ip), vehicle: saline with Tween-80
[14] = dose: 100.0 mg/kg/injection, schedule: Q01DX009 (ip), vehicle: saline with Tween-80
[15] = dose: 200.0 mg/kg/injection, schedule: Q01DX009 (ip), vehicle: saline with Tween-80
[16] = dose: 200.0 mg/kg/injection, schedule: Q01DX005 (ip), vehicle: saline with Tween-80
[17] = dose: 12.5 mg/kg/injection, schedule: Q01DX009 (ip), vehicle: saline
[18] = dose: 25.0 mg/kg/injection, schedule: Q01DX009 (ip), vehicle: saline
[19] = dose: 50.0 mg/kg/injection, schedule: Q01DX009 (ip), vehicle: saline
[20] = dose: 100.0 mg/kg/injection, schedule: Q01DX009 (ip), vehicle: saline
[21] = dose: 50.0 mg/kg/injection, schedule: Q04DX003 (ip), vehicle: saline
[22] = dose: 200.0 mg/kg/injection, schedule: Q01DX005 (ip), vehicle: Klucel (hydroxypropylcellulose) (HPC)

Measured: T/C

CCC(=O)N/C(N)=N\C(N)=O
inactive: [1] 95 % of control | [2] 98 % of control

Cc1cc(=Nc2ccc3c(c2)c(N)cc(C)[n+]3C)nc(N)n1C
inactive: dose: 6.25 mg/kg/injection, schedule: Q01DX005 (ip), vehicle: Klucel (hydroxypropylcellulose) (HPC) 107 % of control | dose: 12.5 mg/kg/injection, schedule: Q01DX005 (ip), vehicle: Klucel (hydroxypropylcellulose) (HPC) 107 % of control | dose: 25.0 mg/kg/injection, schedule: Q01DX005 (ip), vehicle: Klucel (hydroxypropylcellulose) (HPC) 104 % of control

CS(=O)(=O)OCCCCCCCCCCCN1CCOCC1
inactive: [3] 98 % of control | [4] 94 % of control

CN(c1ccccc1)C(C#N)CC(C)(C)C (configuration not stated)
inactive: [5] 98 % of control | [6] 107 % of control

[NH-]c1ccccc1[S-].[NH-]c1ccccc1[S-].[Zn]
inactive: [7] 98 % of control | [8] 95 % of control | dose: 400.0 mg/kg/injection, schedule: Q04DX003 (ip), vehicle: saline 95 % of control

O=c1cc(-c2ccc(O)cc2)oc2cc(O)c(C3OC(CO)C(O)C(O)C3OC3OC(CO)C(O)C(O)C3O)c(O)c12 (configuration not stated)
inactive: dose: 25.0 mg/kg/injection, schedule: Q01DX009 (ip), vehicle: Klucel (hydroxypropylcellulose) (HPC) 102 % of control | [9] 107 % of control | [10] 105 % of control | [11] 99 % of control

C=C(C)C(O)C(O)c1cc2ccc(=O)oc2cc1OC (configuration not stated)
inactive: dose: 12.5 mg/kg/injection, schedule: Q01DX009 (ip), vehicle: saline with Tween-80 99 % of control | [12] 99 % of control | [13] 99 % of control | [14] 107 % of control

CCc1c2c(c(C)n1C)C(c1ccccc1)=NCC(=O)N2
inactive: [13] 91 % of control | [14] 98 % of control | [15] 98 % of control

CC(O)(CSc1ccccc1)CSc1ccccc1 (tested in a mixture with another compound)
inactive: dose: 25.0 mg/kg/injection, schedule: Q01DX005 (ip), vehicle: saline with Tween-80 102 % of control | [3] 100 % of control | [4] 98 % of control | [16] 100 % of control

Cc1c2c(nn1C)CCOC2=O
inactive: dose: 100.0 mg/kg/injection, schedule: Q01DX001 (ip), vehicle: Klucel (hydroxypropylcellulose) (HPC) 100 % of control | dose: 200.0 mg/kg/injection, schedule: Q01DX001 (ip), vehicle: Klucel (hydroxypropylcellulose) (HPC) 101 % of control | dose: 400.0 mg/kg/injection, schedule: Q01DX001 (ip), vehicle: Klucel (hydroxypropylcellulose) (HPC) 95 % of control

Cc1o[nH]c(=O)c1C
inactive: [14] 100 % of control | [15] 100 % of control | dose: 400.0 mg/kg/injection, schedule: Q01DX009 (ip), vehicle: saline with Tween-80 100 % of control

CCCCCCC(C)NCC(O)COc1cccc(C)c1 (configuration not stated)
inactive: dose: 3.12 mg/kg/injection, schedule: Q01DX009 (ip), vehicle: Klucel (hydroxypropylcellulose) (HPC) 111 % of control | dose: 6.25 mg/kg/injection, schedule: Q01DX009 (ip), vehicle: Klucel (hydroxypropylcellulose) (HPC) 107 % of control | dose: 12.5 mg/kg/injection, schedule: Q01DX009 (ip), vehicle: Klucel (hydroxypropylcellulose) (HPC) 111 % of control

CN1CCC(=C2c3ccccc3CCc3sccc32)CC1
inactive: [17] 103 % of control | [18] 104 % of control | [19] 101 % of control and 103 % of control | [20] 108 % of control

N#CC1CCCC[N-]1.[NH-]CC[N-]CC[NH-].[Pt+4] (configuration not stated)
inactive: dose: 6.25 mg/kg/injection, schedule: Q01DX009 (ip), vehicle: saline 93 % of control | [17] 97 % of control | [18] 100 % of control | [19] 97 % of control | [20] 89 % of control

CCOC(=O)NC1c2ccccc2Oc2c(C)cccc21 (configuration not stated)
inactive: [3] 100 % of control | [4] 100 % of control | [16] 100 % of control

CCCC(C)C1(CC(C)O)C(=O)NC(=O)NC1=O (configuration not stated)
inactive: [9] 104 % of control | [10] 104 % of control | [11] 100 % of control

Cc1nn(CCO)c2nc(N)nc(N)c12
inactive: dose: 100.0 mg/kg/injection, schedule: Q01DX001 (ip), vehicle: suspension in saline 104 % of control | dose: 200.0 mg/kg/injection, schedule: Q01DX001 (ip), vehicle: suspension in saline 101 % of control | dose: 400.0 mg/kg/injection, schedule: Q01DX001 (ip), vehicle: suspension in saline 100 % of control

COc1ccc(CC(C#N)c2ccccc2)cc1 (configuration not stated)
inactive: dose: 25.0 mg/kg/injection, schedule: Q04DX003 (ip), vehicle: saline 99 % of control | [21] 104 % of control | [7] 103 % of control | [8] 99 % of control

O=[N+]([O-])c1ccc2c(c1)nc(-c1ccccn1)n2CCc1ccccn1
inactive: dose: 100.0 mg/kg/injection, schedule: Q04DX003 (ip), vehicle: Klucel (hydroxypropylcellulose) (HPC) 107 % of control | dose: 200.0 mg/kg/injection, schedule: Q04DX003 (ip), vehicle: Klucel (hydroxypropylcellulose) (HPC) 101 % of control | dose: 400.0 mg/kg/injection, schedule: Q04DX003 (ip), vehicle: Klucel (hydroxypropylcellulose) (HPC) 107 % of control

COc1ccccc1C(Nc1ccc([N+](=O)[O-])cc1)P(=O)(Oc1ccccc1)Oc1ccccc1 (configuration not stated)
inactive: [5] 95 % of control | [6] 106 % of control | [22] 95 % of control

CCOC(=O)C(c1ccccc1)N(CCCN(CC)CC)c1ccccc1 (configuration not stated)
inactive: dose: 12.5 mg/kg/injection, schedule: Q01DX005 (ip), vehicle: saline 108 % of control | dose: 25.0 mg/kg/injection, schedule: Q01DX005 (ip), vehicle: saline 108 % of control | [3] 100 % of control | [1] 101 % of control

CC(C)CC(NC(=O)OCCc1ccccn1)C(=O)NC(Cc1ccccc1)C(=O)OC(C)(C)C (configuration not stated)
inactive: dose: 60.0 mg/kg/injection, schedule: Q01DX005 (ip), vehicle: Klucel (hydroxypropylcellulose) (HPC) 101 % of control | dose: 120.0 mg/kg/injection, schedule: Q01DX005 (ip), vehicle: Klucel (hydroxypropylcellulose) (HPC) 95 % of control | dose: 240.0 mg/kg/injection, schedule: Q01DX005 (ip), vehicle: Klucel (hydroxypropylcellulose) (HPC) 94 % of control

COC(=O)/C(=C1/OC(=O)C(c2ccc(Cl)cc2)=C1O)c1ccc(OC)cc1
inactive: [5] 102 % of control | [6] 94 % of control

C=C(C)CC(N)C(=O)O (configuration not stated)
inactive: [1] 103 % of control | [2] 100 % of control | dose: 200.0 mg/kg/injection, schedule: Q01DX005 (ip), vehicle: saline 99 % of control

CCCSCCSCCC
inactive: [12] 91 % of control | [13] 100 % of control | [14] 95 % of control

CC(C)CN(CC(C)C)CN(CC(C)C)CC(C)C
inactive: [3] 100 % of control | [4] 119 % of control

CCc1nc2c(cnn2C)c(=O)n1C
inactive: [5] 89 % of control | [6] 98 % of control | [22] 90 % of control

Cc1cc(=O)n2[nH]c(-c3ccco3)cc2n1
inactive: dose: 60.0 mg/kg/injection, schedule: Q01DX005 (ip), vehicle: saline with Tween-80 104 % of control | dose: 120.0 mg/kg/injection, schedule: Q01DX005 (ip), vehicle: saline with Tween-80 104 % of control | dose: 240.0 mg/kg/injection, schedule: Q01DX005 (ip), vehicle: saline with Tween-80 105 % of control

Cc1ncc(C[n+]2cccc(CCO)c2C)c(N)n1
inactive: [21] 97 % of control | [7] 103 % of control | [8] 100 % of control

Nc1nc(N)c2nc(Sc3ccc(Cl)cc3)c(=O)[nH]c2n1
inactive: [13] 97 % of control | [14] 91 % of control | [15] 105 % of control

CCOC(=O)C1=CCC(n2cc(F)c(=O)[nH]c2=O)O1 (configuration not stated)
inactive: [19] 98 % of control | [20] 101 % of control | dose: 200.0 mg/kg/injection, schedule: Q01DX009 (ip), vehicle: saline 99 % of control | dose: 400.0 mg/kg/injection, schedule: Q01DX009 (ip), vehicle: saline 110 % of control
